Data on three molecules can be found in patent US6897306B2, “3-heterocyclylpropanohydroxamic acids” (Pfizer Products, Inc., priority 1999, dated 2005).

Series [1] concerns keratinocyte migration (MMP-1 dependent). Conditions: collagen type I matrix in vitro; cited from earlier work.

Molecules are shown by their SMILES.

The molecule `O=C(O)CNC(=O)c1noc([C@H](CCCC2CCCCC2)CC(=O)NO)n1` [Example 11, 2-{[(5-{(1R)-4-Cyclohexyl-1-[2-(hydroxyamino)-2-oxoethyl]butyl}-1,2,4-oxadiazol-3-yl)carbonyl]amino}acetic Acid] showed a melting point of 141 to 142 °C.

In the case of `CNC(=O)[C@H](Cc1ccc(OC)cc1)NC(=O)[C@@H](CC(=O)NO)CC(C)C` [SC44463], in series [1], the “inhibition of keratinocyte migration” value is “completely inhibited”.

As to `O=C(C[C@@H](CCCC1CCCCC1)c1nc(C(=O)N2CC(N3CCOCC3)C2)no1)NO` [Example 14, (3R)-6-Cyclohexyl-N-hydroxy-3-(3-{[3-(4-morpholinyl)-1-azetidinyl]carbonyl}-1,2,4-oxadiazol-5-yl)hexanamide], the melting point fell in the range of 52 to 63 °C.
